Patent publication US9908890B2, “Selective inhibitors of constitutive androstane receptor” (ST. JUDE CHILDREN'S RESEARCH HOSPITAL, priority 2014, dated 2018)
Where two headings read alike, the source gives them in different places.

Columns and labels:
[1] = system: CAR- and PXR-regulated genes in human primary hepatocytes; assay: Quantitative real-time PCR in human primary hepatocytes; assay type: cell-based; conditions: three donors, 1 μM CITCO or 5 μM PK11195, 48 h
Excerpt: (§1) RNA was extracted, cDNA synthesized, and gene expression analyzed by performing real-time PCR using Taqman probes for each gene. […] LS174T cells were maintained in 10% charcoal-dextran-treated, FBS media for 4 days before the experiment. […] Briefly, human primary hepatocytes (HPH) were maintained in William's E media with supplements for 4 days before treatment. […] RNA extracted was used for cDNA synthesis and measured by performing quantitative real-time PCR assays with Taqman probes.
Briefly, human primary hepatocytes (donor 5) were maintained in William's E Media with supplements for 4 days prior to treatment. […] RNA extracted was used for cDNA synthesis and measured by quantitative real-time PCR with Taqman probes. CYP2B6 and CYP3A4 mRNA were normalized to the internal control 18S and DMSO-treated samples were set to 1.
(§2) Cell lines or human hepatocytes were treated with chemicals for 24-48 hours before RNA was extracted and purified by using the Maxwell 16LEV simplyRNA tissue kit (Promega). Then, cDNA was prepared from 2 μg of RNA, and diluted cDNA was used to perform quantitative RT-PCR assays by using TaqMan probes (ABI; 7500 Thermocycler) with 18S as the internal standard.

[2] = system: CAR binding to CYP2B6 and CYP3A4 promoter response elements; assay: Chromatin immunoprecipitation (CAR / RNA polymerase II occupancy at promoters); assay type: cell-based, human; conditions: human primary hepatocytes, 3 donors, overnight, 1 μM CITCO or 5 μM CINPA1
Experimental: FIG. 8B and FIG. 8C show the fold enrichment of CAR at CYP2B6-dNR3 and CYP2B6-PBREM sites, respectively, in the promoter region following the indicated treatment in human primary hepatocytes. […] Protein complexes were cross-linked and chromatin was immunoprecipitated by using anti-CAR antibody or control IgG. CAR occupancy at two separate CYP2B6 promoter regions (dNR3 and PBREM) was determined by performing quantitative RT-PCR assays. Fold-enrichment normalized to IgG control was plotted. Data represent the mean±SD of 3 experiments. *, p<0.01 comparing CITCO treatment to DMSO treatment.
FIG. 9A, FIG. 9B, and FIG. 9C show the fold enrichment of CAR at CYP2B6-dNR3, CYP3A4-XREM, and CYP2B6-dNR3 sites, respectively, in the promoter region following the indicated treatment in human primary hepatocytes or HepG2-hCAR1 cells, as indicated in the figures. Briefly, in FIG. 9A and FIG. […] 9C HepG2-hCAR1 stable cells were treated for […] with DMSO, 1 μM CITCO, 5 μM CINPA1, or 1 μM CITCO+5 μM CINPA1. Protein complexes were cross-linked and chromatin was immunoprecipitated by using anti-CAR antibody, anti-RNA polymerase II (RPol) antibody, or control IgG. CAR or RPol occupancy at the CYP2B6-dNR3 region and CYP3A4-XREM region was determined by performing quantitative RT-PCR assays. Fold-enrichment was normalized to IgG control. Data represent the mean±SD of 3 experiments. *, p<0.001 and #, p<0.01 comparing CITCO to DMSO samples. **, p<0.001 and ##, p<0.01 comparing CITCO+CINPA1 to CITCO samples.
ChIP was performed as described previously (Cherian, M. T., et al. (2012) J. Biol. Chem. 287, 23368-23380). Briefly, human hepatocytes in 6-well plates were maintained for 3-4 days in Williams E medium containing Primary Hepatocyte Maintenance Supplement (Life Technologies), with daily media changes. Nine wells were used for each treatment group. […] The HepG2-hCAR1 stable cells in FIG. 9 were treated with DMSO, 1 μM CITCO, 5 μM CINPA1, or 1 μM CITCO+5 μM CINPA1 for […]. In FIG. 9, the hepatocytes from donor 7 were treated with DMSO, 0.1 μM CITCO, 1 μM CINPA1, or 0.1 μM CITCO+1 μM CINPA1 for 45 min. Proteins were cross-linked with 1% formaldehyde for 10 min. Cell extracts were digested for 10 min with 50 units of micrococcal nuclease (New England Biolabs) at 37° C. and further sonicated to yield sheared DNA fragments having an average length of 200-1000 base pairs. The sonicated samples were pelleted by centrifugation, and the supernatant was diluted 3- to 5-fold with ChIP dilution buffer (0.01% SDS, 1.1% Triton X-100, 1.2 mM EDTA, 16.7 mM Tris-HCl, pH 8.1, 167 mM NaCl, and protease inhibitor cocktail). […] Quantitative RT-PCR assays were performed to determine the change in CAR occupancy at various sites of CAR binding. […]

hCAR1 = target: T1, hCAR1 (Homo sapiens, UniProt Q14994); assay: Cell-based inverse agonist assay (CYP2B6-luciferase reporter in HepG2 cells transfected with hCAR1)
T1 construct: expressed in transfected cells; host or cells: HepG2 (transient transfection)
T1 sequence (Q14994 1-348 isoform Q14994-2): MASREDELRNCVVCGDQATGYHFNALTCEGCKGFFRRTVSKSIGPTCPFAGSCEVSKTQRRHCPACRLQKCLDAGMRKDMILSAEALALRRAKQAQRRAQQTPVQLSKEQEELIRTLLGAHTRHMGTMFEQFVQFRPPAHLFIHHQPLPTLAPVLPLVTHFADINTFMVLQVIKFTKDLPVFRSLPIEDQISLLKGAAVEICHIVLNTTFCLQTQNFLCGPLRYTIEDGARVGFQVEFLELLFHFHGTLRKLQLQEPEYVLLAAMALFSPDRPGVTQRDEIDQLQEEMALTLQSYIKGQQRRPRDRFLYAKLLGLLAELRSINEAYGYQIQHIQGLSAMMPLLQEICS
Experimental: HepG2 cells grown in flasks were transfected with Flag-hCAR1 and CYP2B6-luciferase reporter at a 1:3 ratio with Fugene HD (Promega) and incubated for 24 h. Cells were trypsinized and plated in 384-well plates (CulturPlate-384, PerkinElmer) at 5000 cells/well for the primary or secondary screening assays. Cells were treated with chemicals transferred by using a pintool 24 h prior to measuring reporter luciferase activity with SteadyLite firefly luciferase reagent and an EnVision plate reader (PerkinElmer). […] PXR activity was measured in HepG2 cells stably transfected with hPXR and CYP3A4-luciferase reporter (previously described as PXR Clonel cells, see Li, G., et al. (2012) Tox. Appl. Pharm. 258, 268-274; and Lin, W., et al. (2008) J. Biol. Chem. 283, 30650-30657). […] The luminescence signal was detected by using an Envision plate reader (PerkinElmer) and used to calculate the percentage of PXR activation. […] A flowchart of our screening strategy is illustrated in FIG. 1A. HepG2 cells were transiently transfected with pcDNA-hCAR1 and CYP2B6-luciferase plasmids and treated with varying concentrations of the test compounds in 384-well plates for 24 h, and CAR-mediated luciferase activity was measured. Twenty-five hits, defined as those displaying dose-responsive inhibitory effect on the constitutively active hCAR1, were selected and tested in various secondary screening assays. CINPA1 (FIG. 1B) was selected based on its potent inhibitory effect on hCAR1 and lack of detectable agonistic activity against PXR.

GST-hCAR-LBD = target: T2, GST-hCAR-LBD (Homo sapiens, UniProt Q14994); assay: CoAct binding inverse agonist assay (LanthaScreen TR-FRET, fluorescent PGC-1α coactivator recruitment/repression); assay type: biochemical; conditions: for inhibition at 70 µM: read-out: % Inhibition (70 μM)
T2 construct: purchased Life Technologies (Carlsbad, Calif.) or Invitrogen (Carlsbad, Calif.)
T2 sequence (Q14994 109-352 limits assumed): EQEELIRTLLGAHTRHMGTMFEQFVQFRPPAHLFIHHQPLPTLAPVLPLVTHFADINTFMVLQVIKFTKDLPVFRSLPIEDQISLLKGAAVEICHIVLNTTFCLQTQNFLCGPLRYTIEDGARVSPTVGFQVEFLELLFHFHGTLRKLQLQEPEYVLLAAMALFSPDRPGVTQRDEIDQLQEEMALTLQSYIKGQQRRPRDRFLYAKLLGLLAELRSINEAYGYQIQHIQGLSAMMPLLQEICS
Experimental: The effect of putative CAR ligands on the recruitment or repression of PGC-1α binding to hCAR was evaluated by using a LanthaScreen TR-FRET assay according to the manufacturer's instructions. […] The final DMSO concentration was 0.7% in all assay wells. […] The % Inhibition values were then plotted for individual chemicals. When applicable, the graphic software GraphPad Prism 5.04 (GraphPad Software, La Jolla, Calif., USA) was used to fit the data into a one-site competitive-binding equation to derive IC50 values. […] The assay plates were then briefly spun down and incubated for 1 hour at room temperature (25° C.). […] The final DMSO concentration was 0.7% in all assay wells. […] The % Inhibition values were then plotted for individual chemicals. When applicable, the graphic software GraphPad Prism 5.04 (GraphPad Software, La Jolla, Calif., USA) was used to fit the data into a one-site competitive-binding equation to derive IC50 values.

[3] = system: CAR-regulated genes in LS174T cells; assay: Quantitative real-time PCR in LS174T cells; assay type: cell-based; conditions: 1 μM CINPA1 or 5 μM PK11195, 24 h
Excerpt: as §1
Briefly, LS174T were maintained in 10% charcoal-dextran treated-FBS media for 4 days prior to the experiment. […] For the data shown in both FIG. 12A and FIG. 12B, RNA extracted was used for cDNA synthesis and measured by quantitative real-time PCR with Taqman probes. MDR1 mRNA was normalized to the internal control 18S and DMSO treated samples were set to 1. *, p<0.05 when compared to DMSO samples.
as §2

[4] = 70 μM compound, 42 μM clotrimazole = 100%, DMSO = 0%
[5] = read-out: IC50 (CAR inverse agonistic activity)

| Compound | CYP2B6 mRNA level, compound alone [1] | IC50 (hCAR1) | % Inhibition (56 μM) (hCAR1) | inhibition at 70 µM (GST-hCAR-LBD; [4]) | IC50 (GST-hCAR-LBD; [5]) | also measured |
| --- | --- | --- | --- | --- | --- | --- |
| Clc1ccc(-c2nc3sccn3c2/C=N/OCc2ccc(Cl)c(Cl)c2)cc1 [CITCO, 6-(4-chlorophenyl)imidazo [2,1-b][1,3]thiazole-5-carbaldehyde O-(3,4-dichlorobenzyl) oxime, reference compound] | induced CYP2B6 levels |  |  |  |  | CAR recruitment to XREM (dNR3) of the CYP2B6 gene [2]: enhances recruitment of CAR |
| CCN(CC)CC(=O)N1c2ccccc2CCc2ccc(NC(=O)N(CC)CC)cc21 [Compound 8, 3-(5-(diethylglycyl)-10,11-dihydro-5H-dibenzo[b,f]azepin-3-yl)-1,1-diethylurea] |  | 109.6 µM | 2.849% | 93.8% | 14 µM |  |
| CCNS(=O)(=O)Nc1ccc2c(c1)N(C(=O)CN(CC)CC)c1ccccc1CC2 [Compound 9] |  | 105.9 µM | 4.757% | 92% | 19.1 µM |  |
| CCN(CC)CC(=O)N1c2ccccc2CCc2ccc(Nc3nnc(C)o3)cc21 [Compound 10, 2-(diethylamino)-1-(3-((5-methyl-1,3,4-oxadiazol-2-yl)amino)-10,11-dihydro-5H-dibenzo[b,f]azepin-5-yl)ethan-1-one] |  | 111.6 µM | 6.281% | 93.8% |  | IC50 (GST-hCAR-LBD; Table 4, read-out: IC50): 18.8 µM; fold increase of IC50 (decrease of activity) relative to lead chemical 1 (CINPA1) (GST-hCAR-LBD; relative to chemical 1): about 3.4 fold |
| CCC(C)N(C)C(=O)c1cc2ccccc2c(-c2ccccc2Cl)n1 (centres unmarked) [PK11195, reference compound] | increased CYP2B6 transcription |  |  |  |  | CYP2B6 mRNA level [3]: reduced the levels of CYP2B6; CYP3A4 mRNA level [3]: increased that of CYP3A4; MDR1 mRNA level [3]: reduced MDR1 levels |
| N-(5-(diethylglycyl)-10,11-dihydro-5H-dibenzo[b,f]azepin-3-yl)isobutyramide [Compound 3] |  | 104.4 µM | 0.03612% |  | 0.68 µM | % Inhibition (70 μM) (GST-hCAR-LBD; [4]): 113.8% |
